Here are results for 21 compounds from PubChem BioAssay (NCI).

Assay in all cases: growth of human tumour cells (NCI), 48 h
The test system of experiment [1] is PC-3 prostate.
In experiment [2] the test system is SK-MEL-5 melanoma.
In experiment [3] the test system is MDA-MB-231 breast.
In experiment [4] the test system is IGROV1 ovarian.
In experiment [5] the test system is UO-31 renal.
Experiment [6] relates to NCI/ADR-RES ovarian.
The test system of experiment [7] is ACHN renal.
Experiment [8] concerns MDA-N.
The subject of experiment [9] is OVCAR-4 ovarian.
In experiment [10] the test system is RPMI-8226 leukemia.
The test system of experiment [11] is SF-295 CNS.
Experiment [12] concerns HCT-116 colon.
In experiment [13] the test system is MDA-MB-435.
For experiment [14], the system named is A498 renal.
Experiment [15] concerns RXF 393 renal.

Values joined by “and” are separate entries in the source; they are usually repeats but may differ in a detail not shown here. Equal entries are not always repeated.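 These data come from cells grown in 96-well plates and exposed to compound for 48 hours at five concentrations. GI50 marks 50% less growth. The concentration for full growth arrest is given as TGI.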 Bounds are passed on as bounds.

On to `S=C1NC2=C(CSC/C2=C\c2ccc(Cl)cc2)C(c2ccc(Cl)cc2)N1` (centres undefined), for which the TGI in [1] was greater than 100 µM; in experiment [2], 37.3 µM; in experiment [3], greater than 100 µM; in experiment [4] it was greater than 100 µM; in experiment [5], greater than 100 µM; in [6] it was greater than 100 µM. The TGI in experiment [7] is greater than 100 µM; in experiment [8] it was greater than 100 µM; in experiment [9], greater than 100 µM; in experiment [10], 94.5 µM; in experiment [11], greater than 100 µM; in experiment [12], greater than 100 µM.

On to `CC1(C)CC[C@]2(C(=O)O)CC[C@]3(C)C(=CCC4=C5C[C@H](O)[C@H](O)[C@@](C)(CO)[C@@]5(C)CC[C@]43C)[C@@H]2C1`, for which the TGI in experiment [13] was greater than 100 µM; in experiment [1], greater than 100 µM; in [2] it was 62.8 µM; in experiment [14], greater than 100 µM; in experiment [3], greater than 100 µM; in experiment [4], greater than 100 µM. Besides, the TGI in experiment [5] was greater than 100 µM; in experiment [6] it was greater than 100 µM; in experiment [7], greater than 100 µM; in experiment [8], greater than 100 µM; in experiment [9] it was 71.4 µM; in experiment [10] it was greater than 100 µM. Also, the TGI in [11] and in [12] was greater than 100 µM in each case.

Consider `CCCCC(=O)/C=c1/cc(C)[nH]c2cccc3cnn1c32`, for which the TGI in [13], in experiment [1], in experiment [2], in experiment [14], in experiment [3] and in experiment [4] was greater than 100 µM each time. Also, the TGI in experiment [5], in [6], in experiment [7], in experiment [8], in [9] and in experiment [10] was greater than 100 µM throughout. Also, the TGI in experiment [11] and in [12] was greater than 100 µM in each case.

`C=C1CN=C(Nc2ccc(Cl)cc2)S1`: the TGI in [1], in [2], in experiment [14], in experiment [3], in experiment [4] and in [5] was greater than 100 µM throughout. The TGI in [6], in [7], in experiment [8], in experiment [9], in experiment [10] and in experiment [11] was greater than 100 µM throughout. Moreover, the TGI in experiment [12] was greater than 100 µM.

For the compound `CCOC(=O)C1=C(C)N(c2ccc(Cl)cc2)C2(O)C=CC(=O)C3=C(O)c4ccccc4C(=O)C312` (centres undefined), the TGI in experiment [13] amounted to 11.3 µM; in experiment [1], 15.8 µM; in experiment [2] it was 20.4 µM; in experiment [14], 30 µM; in experiment [3] it was 25 µM; in experiment [4] it was 12.9 µM. Moreover, the TGI in [5] was 15.8 µM; in experiment [6], 12.6 µM; in experiment [7], 16.4 µM; in experiment [8], 18.2 µM; in [9], 8.33 µM; in experiment [10], 4.42 µM. In addition, the TGI in [11] amounted to 22.4 µM; in [12] it was 11.6 µM.

With `COC(=O)/C=C/CCC#Cc1ccccc1C#CCC/C=C/C(=O)OC`, the TGI in experiment [13] was greater than 100 µM; in [15] it was 27 µM; in [1] it was greater than 100 µM; in experiment [14], greater than 100 µM; in experiment [3], greater than 100 µM; in [4], 98.2 µM. In addition, the TGI was greater than 100 µM in [5]; 66.2 µM in experiment [6]; greater than 100 µM in [7]; greater than 100 µM in experiment [8]; greater than 100 µM in [9]; greater than 100 µM in [11]. In [12], the TGI is greater than 100 µM.

In the case of `CNc1cc([N+](=O)[O-])ccc1C(=O)N1CCC[C@H]1CO`, the TGI in experiment [13], in experiment [1], in [14], in experiment [3], in [4] and in experiment [5] was greater than 100 µM throughout. Further, the TGI in [6], in experiment [7], in [8], in [10], in [11] and in [12] was greater than 100 µM throughout.

As for `Cc1cc(C)c(NS(=O)c2cccc(C(F)(F)F)c2)c(C)c1` (centres undefined), the TGI in experiment [13], in experiment [15], in [1], in experiment [14], in experiment [5] and in experiment [6] was greater than 100 µM throughout. The TGI in experiment [7], in experiment [8], in experiment [10] and in [11] was greater than 100 µM in each case.

In the case of `Cc1ccc(N2C(=O)C3c4[nH]c5ccc(C)cc5c4C4CCC(C(C)(C)C)CC4C3C2=O)cc1` (centres undefined), the TGI in experiment [13] was 55.1 µM; in experiment [1], 70.3 µM; in [2], greater than 100 µM; in experiment [3] it was 26.7 µM; in experiment [4], 36.5 µM; in [5], greater than 100 µM. Besides, the TGI in [6] was 60.2 µM; in experiment [8] it was 70.1 µM; in experiment [9] it was 20.9 µM; in [10], 46.3 µM; in [11], 40.7 µM; in [12] it was 37.1 µM.

As to `CCCCN=NNc1cn(C2OC(CO)C(O)C2O)c(=O)[nH]c1=O` (centres undefined), the TGI in experiment [13], in experiment [15], in [1], in experiment [2], in experiment [14] and in experiment [3] was greater than 100 µM each time. The TGI in [4], in experiment [6], in experiment [7], in [8], in experiment [9] and in experiment [11] was greater than 100 µM each time. Besides, in [12], the TGI was greater than 100 µM.

With `CSc1c(C#N)c(=O)n(N)c2c1c(C)nn2-c1ccccc1`, the TGI is greater than 100 µM in [13]; 69.1 µM in [15]; 76.7 µM in [1]; 28.7 µM in [2]; 65.8 µM in experiment [14]; 57.9 µM in [3]. Further, the TGI in [5] was 51.9 µM; in [6], 62.9 µM; in experiment [8], greater than 100 µM; in experiment [9], 96.1 µM; in [10], 63.9 µM; in experiment [12] it was 56.2 µM.

As for `C=C(C)C1CC[C@@](C)(O)[C@H](C#N)C1` (some centres undefined), the TGI in experiment [13], in experiment [15], in [1], in [2], in experiment [14] and in experiment [3] was greater than 100 µM each time. For the same compound, the TGI in experiment [5], in experiment [7], in [8], in [9], in [10] and in [11] was greater than 100 µM throughout. Besides, the TGI in [12] was greater than 100 µM.

On to `C[C@@H]1S[C@H](c2c(F)cccc2Cl)n2c1nc1ccccc12`, for which the TGI in [13] came out at 25.1 µM; in [15] it was 28.8 µM; in experiment [1], 23.7 µM; in [3], 27 µM; in [4] it was 59.5 µM; in experiment [5], 24.2 µM. In addition, the TGI in experiment [6] was 31.4 µM; in experiment [7], greater than 100 µM; in [8] it was 21.5 µM; in [9] it was 37 µM; in experiment [10], 40.2 µM; in experiment [11], 42 µM. In experiment [12], the TGI stood at 16.5 µM.

For the compound `Clc1cccc(-c2nc3cccc4c3n2Cc2ncccc2-4)c1`, the TGI in [13], in [15], in experiment [1], in experiment [14], in experiment [3] and in experiment [4] was greater than 100 µM in each case. The TGI in experiment [6], in experiment [7], in experiment [8], in [9], in [11] and in [12] was greater than 100 µM in each case.

Take `C=C(Cl)/C(=C\Cl)CCC(Cl)C(C)C` (centres undefined) (tested in a mixture with another compound): the TGI in experiment [13] worked out at 28.8 µM; in experiment [15], 23.6 µM; in experiment [1] it was 39 µM; in experiment [2] it was 27.6 µM; in experiment [14], 34.6 µM; in [3], 30.8 µM. For the same compound, the TGI in [4] was determined as 28.4 µM; in [5], 32.1 µM; in experiment [6], 84.4 µM; in [7] it was 30.4 µM; in experiment [8], 30.4 µM; in experiment [9] it was 31.2 µM. In addition, the results for the TGI in experiment [11] and in experiment [12] were 41.2 µM and 29.8 µM, respectively.

`CCO/C(O)=C(/C(=N)N1CCOCC1)C(=O)NC(C)C`: the TGI in experiment [13], in [15], in [1], in experiment [14], in experiment [3] and in experiment [4] was greater than 100 µM each time. Further, the TGI in experiment [6], in experiment [7], in [8], in experiment [9], in [10] and in experiment [11] was greater than 100 µM each time. In addition, the TGI in [12] was greater than 100 µM.

As for `CN(C)c1ccc(C=Nc2ccc(-c3nc4ccccc4s3)cc2)cc1`, the TGI in experiment [13] was greater than 100 µM; in [15], 52.2 µM; in experiment [1], 71.5 µM; in [2], 44.8 µM; in experiment [14], 37.1 µM; in [4] it was greater than 100 µM. Also, the TGI is greater than 100 µM in experiment [5]; 92 µM in [6]; 69 µM in [7]; greater than 100 µM in experiment [8]; greater than 100 µM in experiment [9]; greater than 100 µM in experiment [10]. For the same compound, the TGI in experiment [11] is 29.9 µM; in [12], greater than 100 µM.

In the case of `COc1ccccc1-n1nnc2c(N)nc(N)nc21`, the TGI in experiment [13], in [1], in experiment [2], in experiment [14], in experiment [3] and in experiment [4] was greater than 100 µM throughout. For the same compound, the TGI in [5], in experiment [6], in [7], in [8], in experiment [9] and in experiment [10] was greater than 100 µM each time. Further, the TGI in [11] and in experiment [12] was greater than 100 µM each time.

Regarding `COc1ccc(Cc2cc(Cc3ccc(OC)cc3)cc(Cc3ccc(OC)cc3)c2)cc1`, the TGI in experiment [13], in experiment [1], in experiment [14], in experiment [3], in [4] and in [5] was greater than 100 µM each time. Also, the TGI in [6], in [7], in experiment [8], in experiment [9], in experiment [10] and in experiment [11] was greater than 100 µM in each case. This compound showed a TGI in [12] greater than 100 µM.

`Cc1ccc(Sc2ccccc2C23OC(C)(C4C(=O)N(c5ccccc5)C(=O)C42)N(C)C3=O)cc1` (centres undefined): the TGI in experiment [13], in [15], in [1], in experiment [2], in experiment [14] and in [3] was greater than 100 µM each time. The TGI in experiment [4], in [5], in [6], in experiment [7], in [8] and in experiment [9] was greater than 100 µM each time. The TGI in experiment [11] and in experiment [12] was greater than 100 µM throughout.

In the case of `CC(=O)OCC1OC(n2c(C)c(C(C)=O)c(-c3ccco3)c(C#N)c2=S)C(OC(C)=O)C(OC(C)=O)C1OC(C)=O` (centres undefined), the TGI in experiment [13], in [15], in experiment [1], in experiment [2], in [14] and in [3] was greater than 100 µM throughout. In addition, the TGI in experiment [4], in experiment [6], in experiment [7], in experiment [8], in [9] and in [11] was greater than 100 µM in each case. Also, the TGI in experiment [12] was greater than 100 µM. Also, the GI50 is > 100 µM and 43.6 µM in [4]; > 100 µM and 37.8 µM in experiment [9].
